PMC8724943 (Translational Oncology, 2021)

Molecular target: p21 activated kinase 4 (PAK4) (Homo sapiens, UniProt O96013)
Assay: in vitro radiometric kinase assay
Format: biochemical

p21 activated kinase 4 (PAK4), sequence (O96013 whole entry): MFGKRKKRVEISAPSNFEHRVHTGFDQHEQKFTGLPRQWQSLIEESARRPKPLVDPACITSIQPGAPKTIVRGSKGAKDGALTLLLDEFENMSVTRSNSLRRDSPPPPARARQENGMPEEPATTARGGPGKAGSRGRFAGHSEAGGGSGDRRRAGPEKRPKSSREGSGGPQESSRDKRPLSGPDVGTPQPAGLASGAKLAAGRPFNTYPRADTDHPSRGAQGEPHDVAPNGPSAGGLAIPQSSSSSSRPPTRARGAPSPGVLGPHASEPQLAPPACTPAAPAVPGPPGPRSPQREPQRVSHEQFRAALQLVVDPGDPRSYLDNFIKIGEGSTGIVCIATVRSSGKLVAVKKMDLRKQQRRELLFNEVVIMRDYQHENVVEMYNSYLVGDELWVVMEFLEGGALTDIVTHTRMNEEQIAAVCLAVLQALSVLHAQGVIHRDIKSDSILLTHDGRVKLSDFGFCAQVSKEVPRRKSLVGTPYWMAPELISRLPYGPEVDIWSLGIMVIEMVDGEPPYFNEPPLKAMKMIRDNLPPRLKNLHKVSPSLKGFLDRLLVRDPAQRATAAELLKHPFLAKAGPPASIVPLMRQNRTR

IC50: ~500 nM
Substance: PAKib
